{"source": "paper PMC5569447", "about": "(Iranian Journal of Basic Medical Sciences, 2017)", "tested_on": "Mtb strain H37Rv ATCC 27294", "details": "24 h", "note": "Peptide text beside a SMILES is read from it."}
{"smiles": "NC(=O)CC[C@H](NC(=O)[C@@H]1CCCN1C(=O)[C@@H]1CCCN1)C(=O)O", "note": "[PPQ] (H-Pro-Pro-Gln-OH)", "values": [{"measurement": "MABA MIC", "result": ">800", "unit": "µM"}]}
